Reference: EP4800015A1, “AZABICYCLO DERIVATIVE AND PREPARATION METHOD THEREFOR, AND USE” (Zhejiang Hisun Pharmaceutical Co., Ltd., priority 2023, dated 2025)
Like-named read-outs stand apart in the source and are kept apart here.

Biological target: T1, recombinant human WRN (Homo sapiens, UniProt Q14191)
T1 construct: purchased BPS 101264
Test: Inhibition of WRN enzyme activity (ATPase), ADP-Glo Kinase Assay
Assay type: biochemical
Details: WRN protein 5 nM, Flap 0.1 nM, ATP 30 µM
Method in brief: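 ATPase activity was measured by ADP-Glo luminescence after a 10-min room-temperature reaction with 30 µM ATP and 0.1 nM Flap26 oligonucleotide substrate. The 5 nM WRN had first been exposed to compound (0.004–1000 nM) for 15 min in pH 7.5 Tris buffer with 2 mM MgCl2. IC50 values came from log-concentration regression against the DMSO control.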

T1 sequence (Q14191 whole entry): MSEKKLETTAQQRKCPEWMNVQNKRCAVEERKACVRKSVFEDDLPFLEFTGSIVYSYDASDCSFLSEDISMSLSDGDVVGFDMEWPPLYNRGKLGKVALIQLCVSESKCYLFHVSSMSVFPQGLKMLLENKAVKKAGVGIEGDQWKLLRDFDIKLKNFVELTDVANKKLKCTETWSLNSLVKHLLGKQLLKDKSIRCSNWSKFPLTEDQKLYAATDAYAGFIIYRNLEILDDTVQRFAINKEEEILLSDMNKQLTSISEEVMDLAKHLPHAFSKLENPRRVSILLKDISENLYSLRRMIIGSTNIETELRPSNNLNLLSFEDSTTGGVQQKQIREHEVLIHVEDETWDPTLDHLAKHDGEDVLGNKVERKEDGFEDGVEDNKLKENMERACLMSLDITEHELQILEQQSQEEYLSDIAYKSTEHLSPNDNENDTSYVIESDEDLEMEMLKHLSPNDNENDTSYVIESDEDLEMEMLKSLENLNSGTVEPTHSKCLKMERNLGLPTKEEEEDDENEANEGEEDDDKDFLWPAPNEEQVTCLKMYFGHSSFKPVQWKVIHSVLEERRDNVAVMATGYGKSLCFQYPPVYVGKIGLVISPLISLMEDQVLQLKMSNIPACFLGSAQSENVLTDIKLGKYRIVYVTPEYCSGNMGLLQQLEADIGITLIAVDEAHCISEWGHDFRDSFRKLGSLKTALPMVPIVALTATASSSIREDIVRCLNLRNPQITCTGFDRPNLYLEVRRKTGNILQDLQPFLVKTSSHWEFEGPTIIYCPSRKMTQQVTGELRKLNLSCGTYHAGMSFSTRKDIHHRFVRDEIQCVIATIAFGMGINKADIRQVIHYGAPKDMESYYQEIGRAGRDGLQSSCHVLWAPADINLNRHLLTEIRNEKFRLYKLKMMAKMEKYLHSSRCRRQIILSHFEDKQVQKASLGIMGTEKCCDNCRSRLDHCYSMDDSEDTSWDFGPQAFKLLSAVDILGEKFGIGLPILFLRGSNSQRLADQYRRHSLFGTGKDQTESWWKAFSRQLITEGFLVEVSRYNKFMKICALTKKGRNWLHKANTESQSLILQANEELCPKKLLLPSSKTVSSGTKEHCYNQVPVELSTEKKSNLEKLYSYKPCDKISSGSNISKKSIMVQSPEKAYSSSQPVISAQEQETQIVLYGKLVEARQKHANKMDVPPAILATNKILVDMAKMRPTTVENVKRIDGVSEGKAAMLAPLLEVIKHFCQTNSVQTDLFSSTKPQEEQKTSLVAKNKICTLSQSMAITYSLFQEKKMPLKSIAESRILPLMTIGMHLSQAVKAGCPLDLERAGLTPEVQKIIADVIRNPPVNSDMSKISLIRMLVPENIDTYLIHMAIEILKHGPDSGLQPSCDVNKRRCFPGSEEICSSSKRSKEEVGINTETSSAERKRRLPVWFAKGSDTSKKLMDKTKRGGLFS

Row | Compound | IC50 | IC50 (read-out: IC50)
1 | CCc1c(N2CCN(C(=O)c3ncnc(C)c3O)CC2)c(=O)n2nc(C3=C[C@H]4C[C@H]4C3)nc2n1CC(=O)Nc1ccc(S(F)(F)(F)(F)F)cc1 [Example 196, 2-(2-((1S,5S)-bicyclo[3.1.0]hex-2-en-3-yl)-5-ethyl-6-(4-(5-hydroxy-6-methylpyrimidine-4-carbonyl)piperazin-1-yl)-7-oxo-[1,2,4]triazolo[1,5-a]pyrimidin-4(7H)-yl)-N-(4-(pentafluoro-λ6-sulfaneyl)phenyl)acetamide] | 1 to 100 nM | –
2 | CCc1c(N2CCN(C(=O)c3ncccc3O)CC2)c(=O)n2nc(C3=CC4(CCC4)C3)nc2n1CC(=O)Nc1ccc(C(F)(F)F)cc1Cl [Example 51, N-(2-chloro-4-(trifluoromethyl)phenyl)-2-(5-ethyl-6-(4-(3-hydroxypicolinoyl)piperazin-1-yl)-7-oxo-2-(spiro[3.3]hept-1-en-2-yl)-[1,2,4]triazolo[1,5-a]pyrimidin-4(7H)-yl)acetamide] | – | 1 to 100 nM
3 | CCc1c(N2CCN(C(=O)c3ncnc(C)c3O)CC2)c(=O)n2nc(N3CCCCCC3)nc2n1CC(=O)Nc1ccc(C(F)(F)F)cc1Cl [Example 3, 2-(2-(Azepan-1-yl)-5-ethyl-6-(4-(5-hydroxy-6-methylpyrimidine-4-carbonyl)piperazin-1-yl)-7-oxo-[1,2,4]triazolo[1,5-a]pyrimidin-4(7H)-yl)-N-(2-chloro-4-(trifluoromethyl)phenyl)acetamide] | – | 1 to 100 nM
4 | CCc1c(C2CCN(C(=O)c3ncnc(C)c3O)CC2)c(=O)n2nc(C3=CCCCCC3)nc2n1CC(=O)Nc1ccc(S(F)(F)(F)(F)F)cc1 [Example 92, 2-(2-(cyclohept-1-en-1-yl)-5-ethyl-6-(1-(5-hydroxy-6-methylpyrimidine-4-carbonyl)piperidin-4-yl)-7-oxo-[1,2,4]triazolo[1,5-a]pyrimidin-4(7H)-yl)-N-(4-(pentafluoro-λ^6-sulfaneyl)phenyl)acetamide] | – | 1 to 100 nM
5 | CCc1c(N2CCN(C(=O)c3ncnc(C)c3O)CC2)c(=O)n2nc(C3=CCC4(CC3)CC4)nc2n1CC(=O)Nc1ccc(C(F)(F)F)cc1Cl [Example 64, N-(2-Chloro-4-(trifluoromethyl)phenyl)-2-(5-ethyl-6-(4-(5-hydroxy-6-methylpyrimidine-4-carbonyl)piperazin-1-yl)-7-oxo-2-(spiro[2.5]oct-5-en-6-yl)-[1,2,4]triazolo[1,5-a]pyrimidin-4(7H)-yl)ac etamide] | – | 1 to 100 nM
6 | C=C(c1ccc(OC)cc1)c1nc2n(CC(=O)Nc3ccc(C(F)(F)F)cc3Cl)c(CC)c(N3CCN(C(=O)c4ncnc(C)c4O)CC3)c(=O)n2n1 [Example 83, N-(2-chloro-4-(trifluoromethyl)phenyl)-2-(5-ethyl-6-(4-(5-hydroxy-6-methylpyrimidine-4-carbonyl)piperazin-1-yl)-2-(1-(4-methoxyphenyl)vinyl)-7-oxo-[1,2,4]triazolo[1,5-a]pyrimidin-4(7H)-yl) acetamide] | 1 to 100 nM | –
7 | CCc1c(N2CCN(C(=O)c3ncnc(C)c3O)CC2)c(=O)n2nc(-c3cc4cccnc4s3)nc2n1CC(=O)Nc1ccc(C(F)(F)F)cc1Cl [Example 131, N-(2-chloro-4-(trifluoromethyl)phenyl)-2-(5-ethyl-6-(4-(5-hydroxy-6-methylpyrimidine-4-carbonyl)piperazin-1-yl)-7-oxo-2-(thieno[2,3-b]pyridin-2-yl)-[1,2,4]triazolo[1,5-a]pyrimidin-4(7H)-yl)a cetamide] | – | 1 to 100 nM
8 | CCc1c(N2CCN(C(=O)c3ncnc(C)c3O)CC2)c(=O)n2nc(C3CCCC3)nc2n1CC(=O)Nc1ccc(C(F)(F)F)cc1Cl [Example 2, N-(2-Chloro-4-(trifluoromethyl)phenyl)-2-(2-cyclopentyl-5-ethyl-6-(4-(5-hydroxy-6-methylpyrimidine-4-carbonyl)piperazin-1-yl)-7-oxo-[1,2,4]triazolo[1,5-a]pyrimidin-4(7H)-yl)acetamide] | – | 1 to 100 nM
9 | CCc1c(N2CCN(C(=O)c3ncnc(C)c3O)CC2)c(=O)n2nc(-c3ccc4scnc4c3)nc2n1CC(=O)Nc1ccc(C(F)(F)F)cc1Cl [Example 100, 2-(2-(benzo[d]thiazol-5-yl)-5-ethyl-6-(4-(5-hydroxy-6-methylpyrimidine-4-carbonyl)piperazin-1-yl)-7-oxo-[1,2,4]triazolo[1,5-a]pyrimidin-4(7H)-yl)-N-(2-chloro-4-(trifluoromethyl)phenyl)acetamide] | – | 1 to 100 nM
10 | CCc1c(N2CCN(C(=O)c3ncccc3O)CC2)c(=O)n2nc(C3=CCCCCC3)nc2n1CC(=O)Nc1ccc(C(F)(F)F)cc1Cl [Example 45, N-(2-chloro-4-(trifluoromethyl)phenyl)-2-(2-(cyclohept-1-en-1-yl)-5-ethyl-6-(4-(3-hydroxypicolinoyl)piperazin-1-yl)-7-oxo-[1,2,4]triazolo[1,5-a]pyrimidin-4(7H)-yl)acetamide] | – | 1 to 100 nM
11 | CCc1c(N2CCN(C(=O)c3ncccc3O)CC2)c(=O)n2nc(-c3ccc4ccoc4c3)nc2n1CC(=O)Nc1ccc(S(F)(F)(F)(F)F)cc1 [Example 78, 2-(2-(benzofuran-6-yl)-5-ethyl-6-(4-(3-hydroxypicolinoyl)piperazin-1-yl)-7-oxo-[1,2,4]triazolo[1 ,5-a]pyrimidin-4(7H)-yl)-N-(4-(pentafluoro-λ^6-sulfaneyl)phenyl)acetamide] | – | 1 to 100 nM
12 | CCc1c(N2CCN(C(=O)c3ncnc(C)c3O)CC2)c(=O)n2nc(C3=CCCCCC3)nc2n1CC(=O)Nc1ccc(OC(F)(F)F)cc1 [Example 95, 2-(2-(cyclohept-1-en-1-yl)-5-ethyl-6-(4-(5-hydroxy-6-methylpyrimidine-4-carbonyl)piperazin-1-yl)-7-oxo-[1,2,4]triazolo[1,5-a]pyrimidin-4(7H)-yl)-N-(4-(trifluoromethoxy)phenyl)acetamide] | – | < 1 nM
13 | CCc1c(N2CCN(C(=O)c3ncccc3O)CC2)c(=O)n2nc(-c3cc4ccccc4s3)nc2n1CC(=O)Nc1ccc(C(F)(F)F)cc1Cl [Example 79, 2-(2-(benzo[b]thiophen-2-yl)-5-ethyl-6-(4-(3-hydroxypicolinoyl)piperazin-1-yl)-7-oxo-[1,2,4]triazolo[1,5-a]pyrimidin-4(7H)-yl)-N-(2-chloro-4-(trifluoromethyl)phenyl)acetamide] | – | 1 to 100 nM
14 | CCc1c(N2CCN(C(=O)c3ccncc3O)CC2)c(=O)n2nc(C3=CCCCCC3)nc2n1CC(=O)Nc1ccc(C(F)(F)F)cc1Cl [Example 9, N-(2-chloro-4-(trifluoromethyl)phenyl)-2-(2-(cyclohept-1-en-1-yl)-5-ethyl-6-(4-(3-hydroxyisonic otinoyl)piperazin-1-yl)-7-oxo-[1,2,4]triazolo[1,5-a]pyrimidin-4(7H)-yl)acetamide] | – | < 1 nM
15 | CCc1c(N2CCN(C(=O)c3ccncc3O)CC2)c(=O)n2nc(C3=CC4CC(=O)CC4C3)nc2n1CC(=O)Nc1ccc(C(F)(F)F)cc1Cl (stereo not drawn) [Example 14, N-(2-chloro-4-(trifluoromethyl)phenyl)-2-(5-ethyl-6-(4-(3-hydroxyisonicotinoyl)piperazin-1-yl)-7-oxo-2-(5-oxo-1,3a,4,5,6,6a-hexahydropentalen-2-yl)-[1,2,4]triazolo[1,5-a]pyrimidin-4(7H)-yl)a cetamide] | – | 1 to 100 nM
16 | CCc1c(N2CCN(C(=O)c3ncnc(C)c3O)CC2)c(=O)n2nc(C3=CCCCCC3)nc2n1CC(=O)Nc1ccc(C(F)(F)F)cc1OC [Example 48, 2-(2-(cyclohept-1-en-1-yl)-5-ethyl-6-(4-(5-hydroxy-6-methylpyrimidine-4-carbonyl)piperazin-1-yl)-7-oxo-[1,2,4]triazolo[1,5-a]pyrimidin-4(7H)-yl)-N-(2-methoxy-4-(trifluoromethyl)phenyl)ace tamide] | – | 1 to 100 nM
17 | CCc1c(N2CCN(C(=O)c3ncnc(C)c3O)CC2)c(=O)n2nc(-c3ccc4c(c3)ncn4C)nc2n1CC(=O)Nc1ccc(C(F)(F)F)cc1Cl [Example 111, N-(2-chloro-4-(trifluoromethyl)phenyl)-2-(5-ethyl-6-(4-(5-hydroxy-6-methylpyrimidine-4-carbonyl)piperazin-1-yl)-2-(1-methyl-1H-benzo[d]imidazol-5-yl)-7-oxo-[1,2,4]triazolo[1,5-a]pyrimidin-4(7H)-yl)acetamide] | – | 1 to 100 nM
18 | CCc1c(N2CCN(C(=O)c3ncnc(C)c3O)CC2)c(=O)n2nc(C3=C[C@@H]4C[C@@H]4C3)nc2n1CC(=O)Nc1ccc(S(F)(F)(F)(F)F)cc1 [Example 195, 2-(2-((1R,5R)-bicyclo[3.1.0]hex-2-en-3-yl)-5-ethyl-6-(4-(5-hydroxy-6-methylpyrimidine-4-carbonyl)piperazin-1-yl)-7-oxo-[1,2,4]triazolo[1,5-a]pyrimidin-4(7H)-yl)-N-(4-(pentafluoro-λ6-sulfaneyl)phenyl)acetamide] | – | 1 to 100 nM
19 | CCc1c(N2CCN(C(=O)c3ncnc(C)c3O)CC2)c(=O)n2nc(C3=CC4CN(C)CC4C3)nc2n1CC(=O)Nc1ccc(C(F)(F)F)cc1Cl (stereo not drawn) [Example 144, N-(2-chloro-4-(trifluoromethyl)phenyl)-2-(5-ethyl-6-(4-(5-hydroxy-6-methylpyrimidine-4-carbonyl)piperazin-1-yl)-2-(2-methyl-1,2,3,3a,4,6a-hexahydrocyclopenta[c]pyrrol-5-yl)-7-oxo-[1,2,4]triazolo[1,5-a]pyrimidin-4(7H)-yl)acetamide] | – | 1 to 100 nM
20 | CCc1c(N2CCN(C(=O)c3ncnc(C)c3O)CC2)c(=O)n2nc(-c3ccc4c(c3)CCO4)nc2n1CC(=O)Nc1cc2ccsc2cc1C [Example 168, 2-(2-(2,3-dihydrobenzofuran-5-yl)-5-ethyl-6-(4-(5-hydroxy-6-methylpyrimidine-4-carbonyl)piperazin-1-yl)-7-oxo-[1,2,4]triazolo[1,5-a]pyrimidin-4(7H)-yl)-N-(6-methylbenzo[b]thiophen-5-yl)ac etamide] | – | 1 to 100 nM
21 | CCc1c(N2CCN(C(=O)c3ccncc3O)CC2)c(=O)n2nc(C3=CCCCCC3)nc2n1CC(=O)Nc1ccc(S(F)(F)(F)(F)F)cc1 [Example 25, 2-(2-(cyclohept-1-en-1-yl)-5-ethyl-6-(4-(3-hydroxyisonicotinoyl)piperazin-1-yl)-7-oxo-[1,2,4]triazolo[1,5-a]pyrimidin-4(7H)-yl)-N-(4-(pentafluoro-λ^6-sulfaneyl)phenyl)acetamide] | – | 1 to 100 nM
